Reference: patent US12077503B2, “Substituted cyclic amides and their use as herbicides” (FMC CORPORATION, priority 2015, dated 2024)

Key:
Assay type in all cases: in vivo
[1] = test system: Kochia (Kochia scoparia); assay: Test C postemergence; settings: scale 0 to 100, 0 no effect, 100 complete control
Description: (§1) Seeds of plant species selected from blackgrass (Alopecurus myosuroides), ryegrass, Italian (Italian ryegrass, Lolium multiflorum), wheat (winter wheat, Triticum aestivum), Galium (catchweed bedstraw, Galium aparine), corn (Zea mays), crabgrass, large (large crabgrass, Digitaria sanguinalis), foxtail, giant (giant foxtail, Setaria faberii), johnsongrass (Sorghum halepense), lambsquarters (Chenopodium album), morningglory (Ipomoea coccinea), nutsedge, yellow (yellow nutsedge, Cyperus esculentus), pigweed (Amaranthus retroflexus), ragweed (common ragweed, Ambrosia elatior), soybean (Glycine max), barnyardgrass (Echinochloa crus-galli), oilseed rape (Brassica napus), waterhemp (common waterhemp, Amaranthus rudis) and velvetleaf (Abutilon theophrasti) were planted into a blend of loam soil and sand and treated preemergence with test chemicals formulated in a non-phytotoxic solvent mixture which included a surfactant.
(§2) At the same time, plants selected from these crop and weed species and also Kochia (Kochia scoparia), oat, wild (wild oat, Avena fatua), and chickweed (common chickweed, Stellaria media) were planted in pots containing Sunshine Redi-Earth® planting medium comprising spaghnum peat moss, vermiculite, starter nutrients and dolomitic limestone and treated with postemergence applications of test chemicals formulated in the same manner. Plants ranged in height from 2 to 18 cm (1- to 4-leaf stage) for postemergence treatments. Treated plants and controls were maintained in a greenhouse for 13 to 15 d, after which time all species were compared to controls and visually evaluated. Plant response ratings, summarized in Table C, are based on a scale of 0 to 100 where 0 is no effect and 100 is complete control. A dash (-) response means no test result.

[2] = test system: barnyardgrass (Echinochloa crus-galli); assay: Test C postemergence; settings: scale 0 to 100, 0 no effect, 100 complete control
Description: as §1, §2

[3] = test system: corn (Zea mays); assay: Test C postemergence; settings: scale 0 to 100, 0 no effect, 100 complete control
Description: as §1, §2

[4] = test system: johnsongrass (Sorghum halepense); assay: Test C postemergence; settings: scale 0 to 100, 0 no effect, 100 complete control
Description: as §1, §2

[5] = test system: lambsquarters (Chenopodium album); assay: Test C postemergence; settings: scale 0 to 100, 0 no effect, 100 complete control
Description: as §1, §2

[6] = test system: morningglory (Ipomoea coccinea); assay: Test C postemergence; settings: scale 0 to 100, 0 no effect, 100 complete control
Description: as §1, §2

[7] = test system: oilseed rape (Brassica napus); assay: Test C postemergence; settings: scale 0 to 100, 0 no effect, 100 complete control
Description: as §1, §2

[8] = test system: velvetleaf (Abutilon theophrasti); assay: Test C postemergence; settings: scale 0 to 100, 0 no effect, 100 complete control
Description: as §1, §2

[9] = test system: wheat (winter wheat, Triticum aestivum); assay: Test C postemergence; settings: scale 0 to 100, 0 no effect, 100 complete control
Description: as §1, §2

[10] = test system: barnyardgrass (Echinochloa crus-galli); assay: Test C flooded paddy test; settings: Flood; for Plant response rating (scale of 0 to 100), Barnyardgrass: 0 is no effect, 100 is complete control
Procedure, shortened: (§3)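 Test compounds were dosed straight into the flood water of pots holding 2-leaf-stage plants, with water kept 3 cm above the soil. Greenhouse plants were scored visually against controls after 13 to 15 d, from 0 (no effect) to 100 (complete control).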

[11] = test system: ducksalad (Heteranthera limosa); assay: Test C flooded paddy test; settings: Flood; for Plant response rating (scale of 0 to 100), Ducksalad: 0 is no effect, 100 is complete control
Procedure, shortened: as §3

[12] = test system: rice (Oryza sativa); assay: Test C flooded paddy test; settings: Flood; for Plant response rating (scale of 0 to 100), Rice: 0 is no effect, 100 is complete control
Procedure, shortened: as §3

[13] = test system: sedge, umbrella (small-flower umbrella sedge, Cyperus difformis); assay: Test C flooded paddy test; settings: Flood; for Plant response rating (scale of 0 to 100), Sedge, Umbrella: 0 is no effect, 100 is complete control
Procedure, shortened: as §3

[14] = test system: Monochoria (Monochoria vaginalis); assay: Test F flooded paddy test; set-up: key: 0 = no effect, 100 = complete control; settings: Flood
[15] = 31 g ai/ha, scale 0 to 100 (0 no effect, 100 complete control), 13 to 15 d

CN1C[C@H](c2ccc(F)c(F)c2)[C@@H](C(=O)Nc2cccc(F)c2F)C1=O [Compound 639, (3S,4S)—N-(2,3-difluorophenyl)-4-(3,4-difluorophenyl)-1-methyl-2-oxo-3-pyrrolidinecarboxamide]
Plant response rating, Kochia ([1]; 31 g ai/ha): 40 | Plant response rating, Kochia ([1]; 62 g ai/ha): 50 | Plant response rating, Kochia ([1]; 125 g ai/ha): 80 | Plant response rating, Kochia ([1]; 250 g ai/ha): 85 | Plant response rating, Barnyardgrass ([2]; 31 g ai/ha): 20 | Plant response rating, Barnyardgrass ([2]; 62 g ai/ha): 40 | Plant response rating, Barnyardgrass ([2]; 125 g ai/ha): 70 | Plant response rating, Barnyardgrass ([2]; 250 g ai/ha): 85 | Plant response rating, Corn ([3]; 31 g ai/ha): 0 | Plant response rating, Corn ([3]; 62 g ai/ha): 0 | Plant response rating, Corn ([3]; 125 g ai/ha): 0 | Plant response rating, Corn ([3]; 250 g ai/ha): 35 | Plant response rating, Johnsongrass ([4]; 31 g ai/ha): 0 | Plant response rating, Johnsongrass ([4]; 62 g ai/ha): 0 | Plant response rating, Johnsongrass ([4]; 125 g ai/ha): 0 | Plant response rating, Johnsongrass ([4]; 250 g ai/ha): 0 | Plant response rating, Lambsquarters ([5]; 31 g ai/ha): 40 | Plant response rating, Lambsquarters ([5]; 62 g ai/ha): 75 | Plant response rating, Lambsquarters ([5]; 125 g ai/ha): 65 | Plant response rating, Lambsquarters ([5]; 250 g ai/ha): 70 | Plant response rating, Morningglory ([6]; 31 g ai/ha): 30 | Plant response rating, Morningglory ([6]; 62 g ai/ha): 25 | Plant response rating, Morningglory ([6]; 125 g ai/ha): 60 | Plant response rating, Morningglory ([6]; 250 g ai/ha): 75 | Plant response rating, Oilseed Rape ([7]; 31 g ai/ha): 30 | Plant response rating, Oilseed Rape ([7]; 62 g ai/ha): 30 | Plant response rating, Oilseed Rape ([7]; 125 g ai/ha): 40 | Plant response rating, Oilseed Rape ([7]; 250 g ai/ha): 50 | Plant response rating, Velvetleaf ([8]; 31 g ai/ha): 35 | Plant response rating, Velvetleaf ([8]; 62 g ai/ha): 60 | Plant response rating, Velvetleaf ([8]; 125 g ai/ha): 50 | Plant response rating, Velvetleaf ([8]; 250 g ai/ha): 60 | Plant response rating, Wheat ([9]; 31 g ai/ha): 0 | Plant response rating, Wheat ([9]; 62 g ai/ha): 0 | Plant response rating, Wheat ([9]; 125 g ai/ha): 0 | Plant response rating, Wheat ([9]; 250 g ai/ha): 0 | Plant response rating, Barnyardgrass [10, 15]: 0 | Plant response rating (scale of 0 to 100), Barnyardgrass ([10]; 62 g ai/ha): 50 | Plant response rating (scale of 0 to 100), Barnyardgrass ([10]; 125 g ai/ha): 70 | Plant response rating (scale of 0 to 100), Barnyardgrass ([10]; 250 g ai/ha): 75 | Plant response rating, Ducksalad [11, 15]: 50 | Plant response rating (scale of 0 to 100), Ducksalad ([11]; 62 g ai/ha): 75 | Plant response rating (scale of 0 to 100), Ducksalad ([11]; 125 g ai/ha): 90 | Plant response rating (scale of 0 to 100), Ducksalad ([11]; 250 g ai/ha): 100 | Plant response rating, Rice [12, 15]: 0 | Plant response rating (scale of 0 to 100), Rice ([12]; 62 g ai/ha): 0 | Plant response rating (scale of 0 to 100), Rice ([12]; 125 g ai/ha): 20 | Plant response rating (scale of 0 to 100), Rice ([12]; 250 g ai/ha): 20 | Plant response rating, Sedge, Umbrella [13, 15]: 0 | Plant response rating (scale of 0 to 100), Sedge, Umbrella ([13]; 62 g ai/ha): 0 | Plant response rating (scale of 0 to 100), Sedge, Umbrella ([13]; 125 g ai/ha): 0 | Plant response rating (scale of 0 to 100), Sedge, Umbrella ([13]; 250 g ai/ha): 0 | Plant response rating: Monochoria ([14]; 32 g ai/ha): 65 | Plant response rating: Monochoria ([14]; 64 g ai/ha): 98 | Plant response rating: Monochoria ([14]; 125 g ai/ha): 100 | Plant response rating: Monochoria ([14]; 250 g ai/ha): 100
